Assay results published in ChEMBL document CHEMBL1201862, “PubChem BioAssay data set” (2004).
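Interpolation was linear, between the two tested concentrations surrounding the appropriate level; five concentrations were tested over 48 hours in 96-well plates. GI50 = concentration required for 50% inhibition of growth.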 Activity calls are given as the source filed them. Rule as the data show it: active = GI50 up to about 1.1 µM and inactive = higher.

Columns and labels:
Test in all cases: NCI tumour cell line growth inhibition, 48 h
[1] = tested on: HOP-92
[2] = tested on: HCT-15
[3] = tested on: ACHN
[4] = tested on: M14
[5] = tested on: SF-539
[6] = tested on: MOLT-4
[7] = tested on: HCT-116
[8] = tested on: A498
[9] = tested on: NCI-H460
[10] = tested on: CAKI-1
[11] = tested on: EKVX
[12] = tested on: SNB-75
[13] = tested on: COLO 205
[14] = tested on: PC-3
[15] = tested on: NCI-H226
[16] = tested on: UACC-257
[17] = tested on: HOP-62
[18] = tested on: DLD-1
[19] = tested on: M19-MEL

| SMILES | GI50 [1] | GI50 [2] | GI50 [3] | GI50 [4] | GI50 [5] | GI50 [6] | GI50 [7] | GI50 [8] | GI50 [9] | GI50 [10] | GI50 [11] | GI50 [12] | GI50 [13] | GI50 [14] | GI50 [15] | GI50 [16] | GI50 [17] | GI50 [18] | GI50 [19] |
| --- | --- | --- | --- | --- | --- | --- | --- | --- | --- | --- | --- | --- | --- | --- | --- | --- | --- | --- | --- |
| Cc1sc(N)c(S(=O)(=O)c2ccccc2)c1C | > 100 µM (inactive) | > 100 µM | > 100 µM (inactive) | > 100 µM (inactive) | 5.13 µM (inactive) | > 100 µM (inactive) | > 100 µM (inactive) | > 100 µM (inactive) | > 100 µM (inactive) | > 100 µM (inactive) | > 100 µM (inactive) | > 100 µM (inactive) | > 100 µM (inactive) | > 100 µM (inactive) | > 100 µM (inactive) | > 100 µM (inactive) |  |  |  |
| C/C(=N\NC(=S)N1CCN(c2ccccn2)CC1)c1cccc(C)n1 | 3.81 µM (inactive) | < 0.01 µM | 3 µM (inactive) | 0.261 µM (active) | 1.27 µM (inactive) | < 0.01 µM (active) | < 0.01 µM (active) | 2.75 µM (inactive) | 1.03 µM (active) |  |  | 3.84 µM (inactive) | < 0.01 µM (active) | < 0.01 µM (active) | 2.06 µM (inactive) |  | 6.31 µM (inactive) |  |  |
| COC(=O)c1c(-c2ccccc2)c2sc3ccccc3n2c1N | 29.1 µM (inactive) | 85.7 µM | 50 µM (inactive) | 76.6 µM (inactive) | 28.1 µM (inactive) |  | 28.6 µM (inactive) | 30.5 µM (inactive) | 40.2 µM (inactive) | 51.3 µM (inactive) | 58.3 µM (inactive) | 56.1 µM (inactive) | 28.2 µM (inactive) | 31.1 µM (inactive) | > 100 µM (inactive) | > 100 µM (inactive) | 31.5 µM (inactive) |  |  |
| CCCC(=O)Nc1cc(/C=C/C(=O)N2CC(CCl)c3c2cc(OCc2ccccc2)c2[nH]cc(C)c32)n(C)c1 (stereo not drawn) | 0.0698 µM (active) | 0.106 µM | 0.013 µM (active) | 0.142 µM (active) | 0.0472 µM (active) | 0.00855 µM (active) | 0.0272 µM (active) | 0.0953 µM (active) | 0.0147 µM (active) | 0.0295 µM (active) | 0.136 µM (active) | 0.0675 µM (active) | 0.188 µM (active) | 0.103 µM (active) | 0.107 µM (active) | 0.105 µM (active) | 0.0491 µM (active) |  |  |
| COc1ccc2c(c1)CCc1cc(OC)ccc1/[N+]([O-])=[N+]\2[O-] | 13.2 µM (inactive) | 15.6 µM | 10.8 µM (inactive) | 23 µM (inactive) | 21.2 µM (inactive) | 3.67 µM (inactive) | 12.4 µM (inactive) | 16.2 µM (inactive) | 19.1 µM (inactive) | 17.6 µM (inactive) | 20.8 µM (inactive) | 17.9 µM (inactive) | 14.5 µM (inactive) | 14.8 µM (inactive) |  | 18.3 µM (inactive) | 21.6 µM (inactive) |  |  |
| CC1(C)CCC2(C(=O)O)C(O)CC3(C)C(=CCC4C5(C)CCC(OC6OCC(O)C(O)C6OC6OCC(O)C(O)C6OC6OCC(O)C(OC7OC(CO)C(O)C(O)C7O)C6O)C(C)(C)C5CCC43C)C2C1 (stereo not drawn) | 29.4 µM (inactive) | > 100 µM | 35.1 µM (inactive) | 40.1 µM (inactive) | > 100 µM (inactive) |  | > 100 µM (inactive) | 26.9 µM (inactive) | > 100 µM (inactive) | > 100 µM (inactive) | 37.9 µM (inactive) | 17.9 µM (inactive) | > 100 µM (inactive) | 44.6 µM (inactive) | 23.7 µM (inactive) | 76.4 µM (inactive) | > 100 µM (inactive) |  |  |
| CCCCCCCNC(P(=O)(O)O)P(=O)(O)O | > 100 µM (inactive) | > 100 µM | > 100 µM (inactive) | > 100 µM (inactive) | > 100 µM (inactive) | > 100 µM (inactive) | > 100 µM (inactive) | > 100 µM (inactive) | > 100 µM (inactive) | > 100 µM (inactive) | > 100 µM (inactive) | 8.2 µM (inactive) | > 100 µM (inactive) | > 100 µM (inactive) | > 100 µM (inactive) | > 100 µM (inactive) | > 100 µM (inactive) |  |  |
| CCCCCC/C(CC(=O)CCC(=O)NCCc1ccccc1)=N\NC(=O)c1ccc2ccccc2c1O | 33 µM (inactive) |  | 28.2 µM (inactive) | 33.3 µM (inactive) |  | 11.5 µM (inactive) | 29.9 µM (inactive) |  | 36.5 µM (inactive) |  | 43.2 µM (inactive) | 78.5 µM (inactive) | 54.2 µM (inactive) |  | 55 µM (inactive) | 30.1 µM (inactive) | 36.7 µM (inactive) | 36.9 µM (inactive) | 23.3 µM (inactive) |
| COC(=O)c1ccc2c(c1)CCN2C(=O)c1cc2c(cc1Br)OCO2 | 8.69 µM (inactive) | 1.82 µM | 5.19 µM (inactive) | 0.276 µM (active) | 0.148 µM (active) | 0.504 µM (active) | 0.228 µM (active) | 1.05 µM (active) | 5.81 µM (inactive) | 4.7 µM (inactive) | 4.66 µM (inactive) | 0.484 µM (active) | 0.406 µM (active) | 0.573 µM (active) | 0.277 µM (active) | 0.305 µM (active) | 3.87 µM (inactive) |  |  |
| Nc1nc(Cl)cc(NCCCCCCCCCCCCNc2cc(Cl)nc(N)n2)n1 | 2.87 µM (inactive) | 7.93 µM |  | 38 µM (inactive) | 15.2 µM (inactive) | 1.33 µM (inactive) | 0.832 µM (active) | 12.9 µM (inactive) | 2.5 µM (inactive) |  | 12.3 µM (inactive) | 8.53 µM (inactive) | 19.9 µM (inactive) |  | 15 µM (inactive) | 0.515 µM (active) | 12.2 µM (inactive) | 4.61 µM (inactive) | 11.8 µM (inactive) |
| COc1ccc2cc(/C=N/NC(=O)Nc3ccccc3)ccc2c1 | > 100 µM (inactive) | > 100 µM |  | > 100 µM (inactive) |  | > 100 µM (inactive) | > 100 µM (inactive) | > 100 µM (inactive) | > 100 µM (inactive) | > 100 µM (inactive) |  | > 100 µM (inactive) | > 100 µM (inactive) | > 100 µM (inactive) | > 100 µM (inactive) | > 100 µM (inactive) | > 100 µM (inactive) |  |  |
| COC(=O)CC1(CNC(=O)OCc2ccccc2)OCCO1 | > 100 µM (inactive) | > 100 µM | > 100 µM (inactive) | > 100 µM (inactive) | > 100 µM (inactive) | > 100 µM (inactive) | > 100 µM (inactive) | > 100 µM (inactive) | > 100 µM (inactive) | > 100 µM (inactive) | > 100 µM (inactive) | > 100 µM (inactive) | > 100 µM (inactive) | > 100 µM (inactive) | > 100 µM (inactive) | > 100 µM (inactive) |  |  |  |
| CC(C)NC(=O)OCc1c(COC(=O)NC(C)C)c(-c2cc[n+](COC(=O)Cc3ccccc3)cc2)n2c1CCC2 | > 100 µM (inactive) | > 100 µM | 40.5 µM (inactive) | > 100 µM (inactive) | > 100 µM (inactive) | 47.8 µM (inactive) | > 100 µM (inactive) | > 100 µM (inactive) | 52 µM (inactive) | 37.8 µM (inactive) | > 100 µM (inactive) | 54.6 µM (inactive) | > 100 µM (inactive) | > 100 µM (inactive) | > 100 µM (inactive) | > 100 µM (inactive) | 72.9 µM (inactive) |  |  |
| Cc1ccc2c3c4c(ccc13)C(C)(C)OC4=C(C(C)C)C2=O | 19.5 µM (inactive) | 32.5 µM | 84.5 µM (inactive) | 45.1 µM (inactive) | > 100 µM (inactive) | 26.4 µM (inactive) | 53.1 µM (inactive) | > 100 µM (inactive) | 31.8 µM (inactive) | > 100 µM (inactive) | 63.5 µM (inactive) | 26.4 µM (inactive) | 31.3 µM (inactive) | 14.5 µM (inactive) | 5.4 µM (inactive) | 30.5 µM (inactive) | 15.6 µM (inactive) |  |  |
| CCN(CC)c1ccc2c(c1)Oc1ccc(N(C(C)=O)c3ccccc3)cc1C21OC(=O)c2ccccc21 (stereo not drawn) | > 67.3 µM (inactive) | 92.7 µM | > 100 µM (inactive) | 40.6 µM (inactive) | > 100 µM (inactive) | 16.7 µM (inactive) | 36.1 µM (inactive) | > 100 µM (inactive) | 65.9 µM (inactive) | > 100 µM (inactive) | 84.7 µM (inactive) | > 59.7 µM (inactive) | > 64.1 µM (inactive) | 13.1 µM (inactive) | > 100 µM (inactive) | > 100 µM (inactive) | > 100 µM (inactive) |  |  |
| O=C(O)c1nc2ccc(C(F)(F)F)cc2[nH]c1=O | > 100 µM (inactive) | > 100 µM | > 100 µM (inactive) | > 100 µM (inactive) | > 100 µM (inactive) | > 100 µM (inactive) | > 100 µM (inactive) | > 100 µM (inactive) | > 100 µM (inactive) | > 100 µM (inactive) | > 100 µM (inactive) |  | > 100 µM (inactive) | > 100 µM (inactive) | > 100 µM (inactive) | > 100 µM (inactive) | > 100 µM (inactive) |  |  |
| Cc1ccc(-c2c(C#N)c(-c3ccc([N+](=O)[O-])cc3)c(C#N)c(=O)n2NS(=O)(=O)c2ccccc2)cc1 | 13.3 µM (inactive) | 36 µM | 39.2 µM (inactive) | 32.5 µM (inactive) | 32.3 µM (inactive) | 18.9 µM (inactive) | 31.7 µM (inactive) | 57.7 µM (inactive) | 32.3 µM (inactive) | 97.3 µM (inactive) | 40.5 µM (inactive) | 28.4 µM (inactive) | 53.1 µM (inactive) | 25.3 µM (inactive) | 70.3 µM (inactive) | 88.3 µM (inactive) | 30.1 µM (inactive) |  |  |
